≈ marks a conversion by molar mass, not a printed value.
Key:
[1] = test system: Bacillus subtilis; assay: Antibacterial activity against Bacillus subtilis ATCC 451 after 24 hrs by twofold serial dilution method; type: functional; details: for MIC: Bacillus subtilis, ATCC 451, 24 h
[2] = test system: Escherichia coli; assay: Antibacterial activity against Escherichia coli ATCC 25835 after 24 hrs by twofold serial dilution method; type: functional; details: for MIC: Escherichia coli, ATCC 25835, 24 h
[3] = test system: Candida albicans; assay: Antifungal activity against Candida albicans after 24 hrs by twofold serial dilution method; type: functional; details: for MIC: Candida albicans, 24 h
[4] = test system: Aspergillus niger; assay: Antifungal activity against Aspergillus niger after 72 to 96 hrs by twofold serial dilution method; type: functional; details: for MIC: Aspergillus niger
[5] = test system: Staphylococcus aureus; assay: Antibacterial activity against Staphylococcus aureus ATCC 25825 after 24 hrs by twofold serial dilution method; type: functional; details: for MIC: Staphylococcus aureus, ATCC 25825, 24 h
[6] = test system: Pseudomonas aeruginosa; assay: Antibacterial activity against Pseudomonas aeruginosa ATCC 10145 after 24 hrs by twofold serial dilution method; type: functional; details: for MIC: Pseudomonas aeruginosa, ATCC 10145, 24 h
[7] = test system: Cryptococcus neoformans; assay: Antifungal activity against Cryptococcus neoformans after 72 to 96 hrs by twofold serial dilution method; type: functional; details: for MIC: Cryptococcus neoformans
[8] = test system: Salmonella typhi; assay: Antibacterial activity against Salmonella typhi ATCC 24915 after 24 hrs by twofold serial dilution method; type: functional, Salmonella enterica subsp. enterica serovar Typhi; details: for MIC: Salmonella enterica, ATCC 24915, 24 h
[9] = test system: Klebsiella pneumoniae; assay: Antibacterial activity against Klebsiella pneumoniae ATCC 15490 after 24 hrs by twofold serial dilution method; type: functional; details: for MIC: Klebsiella pneumoniae, ATCC 15490, 24 h

Compound	-logMIC [1]	MIC [1] [µg/mL]	-logMIC [2]	MIC [2] [µg/mL]	-logMIC [3]	MIC [3] [µg/mL]	-logMIC [4]	MIC [4] [µg/mL]	-logMIC [5]	MIC [5] [µg/mL]	-logMIC [6]	MIC [6] [µg/mL]	-logMIC [7]	MIC [7] [µg/mL]	MIC [8] [µg/mL]	-logMIC [9]	MIC [9] [µg/mL]	-logMIC [8]
Cc1ccc([C@H]2O[C@@H](c3ccc(C)cc3)[C@H](C)/C(=N/NC(N)=S)[C@H]2C)cc1	4.301	50 (≈ 131 µM)	4.602	25 (≈ 65.5 µM)	4	100 (≈ 262 µM)	4.301	50 (≈ 131 µM)	4.301	50 (≈ 131 µM)	4	100 (≈ 262 µM)	4	100 (≈ 262 µM)	50 (≈ 131 µM)	4	100 (≈ 262 µM)	
C[C@@H]1/C(=N/NC(N)=S)C[C@@H](c2ccccc2)O[C@H]1c1ccccc1					3.698	200 (≈ 589 µM)			4	100 (≈ 295 µM)	3.698	200 (≈ 589 µM)	4.301	50 (≈ 147 µM)	50 (≈ 147 µM)	4	100 (≈ 295 µM)	
CC[C@@H]1/C(=N/NC(N)=S)C[C@@H](c2ccccc2)O[C@H]1c1ccccc1	4.301	50 (≈ 141 µM)	4.602	25 (≈ 70.7 µM)	3.698	200 (≈ 566 µM)	3.698	200 (≈ 566 µM)	4.301	50 (≈ 141 µM)	4	100 (≈ 283 µM)	4.301	50 (≈ 141 µM)	50 (≈ 141 µM)	4	100 (≈ 283 µM)	
C[C@@H]1/C(=N\NC(N)=S)[C@@H](C)[C@H](c2ccc(F)cc2)O[C@@H]1c1ccc(F)cc1	4.602	25 (≈ 64.2 µM)	4.301	50 (≈ 128 µM)	4	100 (≈ 257 µM)	4	100 (≈ 257 µM)	4.301	50 (≈ 128 µM)	4	100 (≈ 257 µM)	4.602	25 (≈ 64.2 µM)	25 (≈ 64.2 µM)	4.301	50 (≈ 128 µM)	
C[C@@H]1/C(=N\NC(N)=S)[C@@H](C)[C@H](c2ccc(Cl)cc2)O[C@@H]1c1ccc(Cl)cc1	4.602	25 (≈ 59.2 µM)	4.301	50 (≈ 118 µM)	4.602	25 (≈ 59.2 µM)	4	100 (≈ 237 µM)	4.602	25 (≈ 59.2 µM)	4.301	50 (≈ 118 µM)	4.602	25 (≈ 59.2 µM)	25 (≈ 59.2 µM)	4.602	25 (≈ 59.2 µM)	
C[C@@H]1/C(=N\NC(N)=S)[C@@H](C)[C@H](c2ccc(Br)cc2)O[C@@H]1c1ccc(Br)cc1	4.301	50 (≈ 97.8 µM)	4.301	50 (≈ 97.8 µM)	4.301	50 (≈ 97.8 µM)	3.698	200 (≈ 391 µM)	4.602	25 (≈ 48.9 µM)	4.903	12.5 (≈ 24.4 µM)	4.301	50 (≈ 97.8 µM)	25 (≈ 48.9 µM)	4.602	25 (≈ 48.9 µM)	
COc1ccc([C@H]2O[C@@H](c3ccc(OC)cc3)[C@H](C)/C(=N/NC(N)=S)[C@H]2C)cc1	4.903	12.5 (≈ 30.2 µM)	4.602	25 (≈ 60.5 µM)	4.903	12.5 (≈ 30.2 µM)	4.301	50 (≈ 121 µM)	4.903	12.5 (≈ 30.2 µM)	4.301	50 (≈ 121 µM)	3.698	200 (≈ 484 µM)	50 (≈ 121 µM)	4.301	50 (≈ 121 µM)	
C[C@@H]1/C(=N/NC(=S)Nc2ccccc2)C[C@@H](c2ccccc2)O[C@H]1c1ccccc1	4.301	50 (≈ 120 µM)	4.301	50 (≈ 120 µM)	4	100 (≈ 241 µM)	4	100 (≈ 241 µM)	4.301	50 (≈ 120 µM)	4.301	50 (≈ 120 µM)	4.903	12.5 (≈ 30.1 µM)	100 (≈ 241 µM)	4	100 (≈ 241 µM)	4
CC[C@@H]1/C(=N/NC(=S)Nc2ccccc2)C[C@@H](c2ccccc2)O[C@H]1c1ccccc1	4	100 (≈ 233 µM)	4	100 (≈ 233 µM)	4	100 (≈ 233 µM)	4.301	50 (≈ 116 µM)	4.301	50 (≈ 116 µM)	4.602	25 (≈ 58.2 µM)	4.903	12.5 (≈ 29.1 µM)	50 (≈ 116 µM)	4	100 (≈ 233 µM)	
C[C@@H]1/C(=N\NC(=S)Nc2ccccc2)[C@@H](C)[C@H](c2ccc(F)cc2)O[C@@H]1c1ccc(F)cc1	4.301	50 (≈ 107 µM)	4	100 (≈ 215 µM)	4	100 (≈ 215 µM)	4	100 (≈ 215 µM)	4.301	50 (≈ 107 µM)	4.903	12.5 (≈ 26.8 µM)	5.204	6.25 (≈ 13.4 µM)	25 (≈ 53.7 µM)	4.301	50 (≈ 107 µM)	4.602
Cc1ccc([C@H]2O[C@@H](c3ccc(C)cc3)[C@H](C)/C(=N/NC(=S)Nc3ccccc3)[C@H]2C)cc1	4.301	50 (≈ 109 µM)	4.301	50 (≈ 109 µM)	5.204	6.25 (≈ 13.7 µM)	4.602	25 (≈ 54.6 µM)	4	100 (≈ 219 µM)	4	100 (≈ 219 µM)	4.301	50 (≈ 109 µM)	50 (≈ 109 µM)			
C[C@@H]1[C@H](O)[C@@H](C)/C=C/C=C/C=C/C=C/C=C/C=C/C=C/[C@H](O[C@@H]2O[C@H](C)[C@@H](O)[C@H](N)[C@@H]2O)C[C@@H]2O[C@](O)(C[C@@H](O)C[C@@H](O)[C@H](O)CC[C@@H](O)C[C@@H](O)CC(=O)O[C@H]1C)C[C@H](O)[C@H]2C(=O)O [AMPHOTERICIN B]						25 (≈ 27.1 µM)	4.301	50 (≈ 54.1 µM)					4.602	25 (≈ 27.1 µM)				
